Where two headings read alike, the source gives them in different places.
Experiments:
[1] = biological target: NSD2 [1-1365] (Homo sapiens (Human), UniProt O96028); test: LC-MS/MS-based NSD2 enzymatic assay (SAH production); type: biochemical; settings: read-out: NSD2 IC50
Summary of the method: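 Full-length NSD2 [1-1365] (8 nM final) with 1 μM SAM and 400 nM mouse-liver nucleosome in Tris pH 8.0 buffer; inhibitor preincubated 20 min with enzyme/SAM before nucleosome addition. Reaction 90 min at room temperature, TFA-quenched; SAH quantified by LC-MS/MS against d4-SAH internal standard and SAH standard curve.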

[2] = test system: cellular H3K36me2 level in thyroid carcinoma cell line CGTH-W-1 (NSD2 E1099K); test: H3K36me2 cellular ELISA assay in CGTH-W-1 line; type: cell-based; settings: Homo sapiens, CGTH-W-1, 72 h, read-out: H3K36me2 ELISA in CGTH-W-1
Protocol: H3K36Me2 Cellular ELISA Assay in CGTH-W-1 Line
An ELISA (enzyme-linked immunosorbent assay) based assay was used to test the ability of candidate compound to reduce cellular H3K36me2 level in thyroid carcinoma cell line CGTH-W-1, carrying NSD2 E1099K gain of function mutation. CGTH-W-1 (DSMZ) cells are maintained in RPM11640 media with 10% FBS and 50 U/ml Penicillin-Streptomycin.
Cells were treated with tested compounds at the desired concentration for 72 hours.
Histone bound plates were washed and blocked with 5% BSA. […] The abundance of H3K36me2 and total H3 was measured by Chemiluminesce on a plate reader. Cell viability was monitored on a parallel seeded plate with CellTiter-Glo reagent (Promega #G7573).

[3] = test system: cellular H3K36me2 level in multiple myeloma cell line KMS11 (t(4;14)+); test: H3K36me2 cellular ELISA assay in KMS11-Par line; type: cell-based; settings: Homo sapiens, KMS-11, ELISA, read-out: H3K36me2 ELISA in KMS11-Par
Summary of the method: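 KMS11 cells were seeded a day ahead at 1,250 per well in Opti-MEM with B-27/N2, then treated with compound for 72 h. Histones were acid-extracted with 0.4M HCl, and H3K36me2 and total H3 were read by chemiluminescent ELISA. Viability was checked with CellTiter-Glo on a parallel plate in maintenance media.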

[4] = NSD2 biochemical activity, class symbols
[5] = KMS11-Par line (t(4;14)+), 72 hours treatment

NSD2 [1-1365], sequence (O96028 whole entry): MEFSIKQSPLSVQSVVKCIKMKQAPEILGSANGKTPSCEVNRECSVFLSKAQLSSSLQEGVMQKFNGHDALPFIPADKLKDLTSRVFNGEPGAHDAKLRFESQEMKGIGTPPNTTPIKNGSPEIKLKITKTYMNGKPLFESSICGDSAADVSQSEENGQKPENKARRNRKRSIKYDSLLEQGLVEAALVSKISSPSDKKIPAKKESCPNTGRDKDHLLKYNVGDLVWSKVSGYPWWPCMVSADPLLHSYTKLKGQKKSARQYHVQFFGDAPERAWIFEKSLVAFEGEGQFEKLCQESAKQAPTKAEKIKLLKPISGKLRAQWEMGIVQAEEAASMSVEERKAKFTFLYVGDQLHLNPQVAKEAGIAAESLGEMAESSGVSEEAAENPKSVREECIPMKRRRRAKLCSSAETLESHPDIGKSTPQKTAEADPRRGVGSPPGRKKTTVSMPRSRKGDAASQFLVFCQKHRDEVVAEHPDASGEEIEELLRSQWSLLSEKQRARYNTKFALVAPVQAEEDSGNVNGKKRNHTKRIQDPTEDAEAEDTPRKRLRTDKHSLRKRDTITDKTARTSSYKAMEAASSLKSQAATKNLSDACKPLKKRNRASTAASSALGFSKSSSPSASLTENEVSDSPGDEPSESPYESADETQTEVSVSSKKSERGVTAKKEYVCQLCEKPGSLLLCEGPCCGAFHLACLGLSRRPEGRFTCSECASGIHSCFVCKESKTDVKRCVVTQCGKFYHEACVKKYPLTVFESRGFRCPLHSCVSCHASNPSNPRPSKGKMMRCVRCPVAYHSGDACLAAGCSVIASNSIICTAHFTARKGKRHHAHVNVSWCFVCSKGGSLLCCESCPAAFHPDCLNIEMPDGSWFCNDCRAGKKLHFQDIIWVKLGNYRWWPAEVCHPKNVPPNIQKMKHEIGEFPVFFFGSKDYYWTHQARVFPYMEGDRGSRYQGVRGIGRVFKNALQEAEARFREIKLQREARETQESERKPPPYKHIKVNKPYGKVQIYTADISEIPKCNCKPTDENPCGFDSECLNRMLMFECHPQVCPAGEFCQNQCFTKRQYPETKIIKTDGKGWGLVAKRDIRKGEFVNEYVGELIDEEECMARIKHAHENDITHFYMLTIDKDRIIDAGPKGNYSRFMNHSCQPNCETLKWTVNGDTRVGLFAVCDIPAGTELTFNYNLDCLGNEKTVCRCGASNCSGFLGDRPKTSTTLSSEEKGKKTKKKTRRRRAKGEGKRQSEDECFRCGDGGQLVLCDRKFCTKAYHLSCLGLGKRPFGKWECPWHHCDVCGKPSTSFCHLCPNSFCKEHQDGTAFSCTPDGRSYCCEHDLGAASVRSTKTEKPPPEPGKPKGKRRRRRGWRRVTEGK

Row | Structure (SMILES) | IC50 [1, 4] | IC50 [2] | IC50 [3, 5] | IC50 [1] | IC50 ([3]; KMS11-Par line, 72 hours)
1 | Nc1ncnc2c1ncn2Cc1cc(-c2cc(F)c(OC(F)F)cc2F)ncc1N1CCC[C@](N)([C@H](O)C(F)F)C1 [Example 128, (S)-1-((R)-3-amino-1-(4-((6-amino-9H-purin-9-yl)methyl)-6-(4-(difluoromethoxy)-2,5-difluorophenyl)pyridin-3-yl)piperidin-3-yl)-2,2-difluoroethan-1-ol] | 1 to 10 nM | 60 nM | 693 nM |  | 
2 | COc1ccc(-c2cc(Cn3cnc4c(N)ncnc43)c(N3CCC[C@](N)([C@@H](O)C(F)F)C3)cn2)cc1Cl [Example 121, (R)-1-((R)-3-amino-1-(4-((6-amino-9H-purin-9-yl)methyl)-6-(3-chloro-4-methoxyphenyl)pyridin-3-yl)piperidin-3-yl)-2,2-difluoroethan-1-ol] | 1 to 10 nM | 683 nM | 2610 nM |  | 
3 | Nc1ncnc2c1ncn2Cc1cc(-c2cc(F)c(C(F)F)cc2F)ncc1N1CCC[C@](N)([C@@H](O)C(F)F)C1 [Example 134, (R)-1-((R)-3-amino-1-(4-((6-amino-9H-purin-9-yl)methyl)-6-(4-(difluoromethyl)-2,5-difluorophenyl)pyridin-3-yl)piperidin-3-yl)-2,2-difluoroethan-1-ol] | 10 to 1000 nM | 601 nM | 830 nM |  | 
4 | Nc1ncnc2c1ncn2Cc1cc(-c2ccc(F)cn2)ncc1N1CCC[C@](N)([C@@H](O)C(F)F)C1 [Example 155, (R)-1-((R)-3-amino-1-(4-((6-amino-9H-purin-9-yl)methyl)-5′-fluoro-[2,2′-bipyridin]-5-yl)piperidin-3-yl)-2,2-difluoroethan-1-ol] | 10 to 1000 nM | 1170 nM | 16400 nM |  | 
5 | CC(C(=O)C1(N)CCCN(c2cnc(-c3ccc(F)c(F)c3)cc2Cn2cnc3c(N)ncnc32)C1)C1CC1 (stereo not drawn) [Example 103, 1-(3-amino-1-(4-((6-amino-9H-purin-9-yl)methyl)-6-(3,4-difluorophenyl)pyridin-3-yl)piperidin-3-yl)-2-cyclopropylpropan-1-one] | 10 to 1000 nM | 138 nM | 379 nM |  | 
6 | COc1ccc(-c2cc(Cn3cnc4c(N)ncnc43)c(N3CCC[C@](N)(c4cccc(Cl)n4)C3)cn2)c(F)c1F [Example 242, (R)-9-((5-(3-amino-3-(6-chloropyridin-2-yl)piperidin-1-yl)-2-(2,3-difluoro-4-methoxyphenyl)pyridin-4-yl)methyl)-9H-purin-6-amine] |  | 2710 nM |  | 10 to 1000 nM | 8190 nM
7 | Nc1ncnc2c1ncn2Cc1cc(-c2ccc(Cl)c(F)c2)ncc1N1CCC[C@](N)([C@H](O)C(F)F)C1 [Example 152, (S)-1-((R)-3-amino-1-(4-((6-amino-9H-purin-9-yl)methyl)-6-(4-chloro-3-fluorophenyl)pyridin-3-yl)piperidin-3-yl)-2,2-difluoroethan-1-ol] | 10 to 1000 nM | 68.7 nM | 1770 nM |  | 
8 | Nc1ncnc2c1ncn2Cc1cc(-c2ccc(F)c(Cl)n2)ncc1N1CCC[C@](N)(c2cccc(Cl)n2)C1 [Example 191, (R)-9-((5-(3-amino-3-(6-chloropyridin-2-yl)piperidin-1-yl)-6′-chloro-5′-fluoro-[2,2′-bipyridin]-4-yl)methyl)-9H-purin-6-amine] |  | 1380 nM |  | 10 to 1000 nM | 4560 nM
9 | Nc1ncnc2c1ncn2Cc1cc(-c2ccc(Cl)cc2F)ncc1N1CCC[C@](N)([C@H](O)C(F)F)C1 [Example 148, (S)-1-((R)-3-amino-1-(4-((6-amino-9H-purin-9-yl)methyl)-6-(4-chloro-2-fluorophenyl)pyridin-3-yl)piperidin-3-yl)-2,2-difluoroethan-1-ol] | 10 to 1000 nM | 671 nM | 2160 nM |  | 
10 | Nc1ncnc2c1ncn2Cc1cc(C2CCCCC2)ncc1N1CCC[C@](N)([C@@H](O)C(F)F)C1 [Example 130, (R)-1-((R)-3-amino-1-(4-((6-amino-9H-purin-9-yl)methyl)-6-cyclohexylpyridin-3-yl)piperidin-3-yl)-2,2-difluoroethan-1-ol] | 1 to 10 nM | 321 nM | 3520 nM |  | 
11 | Nc1ncnc2c1ncn2Cc1cc(-c2ccc(F)cc2F)ncc1N1CCC[C@](N)([C@@H](O)C(F)F)C1 [Example 147, (R)-1-((R)-3-amino-1-(4-((6-amino-9H-purin-9-yl)methyl)-6-(2,4-difluorophenyl)pyridin-3-yl)piperidin-3-yl)-2,2-difluoroethan-1-ol] | 10 to 1000 nM | 44 nM | 2490 nM |  | 
12 | Cc1cc(C(F)F)ccc1-c1cc(Cn2cnc3c(N)ncnc32)c(N2CCC[C@](N)([C@@H](O)C(F)F)C2)cn1 [Example 115, (R)-1-((R)-3-amino-1-(4-((6-amino-9H-purin-9-yl)methyl)-6-(4-(difluoromethyl)-2-methylphenyl)pyridin-3-yl)piperidin-3-yl)-2,2-difluoroethan-1-ol] | 1 to 10 nM | 88 nM | 927 nM |  | 
13 | COc1cc(F)ccc1-c1cc(Cn2cnc3c(N)ncnc32)c(N2CCC[C@](N)([C@H](O)C(F)F)C2)cn1 [Example 173, (S)-1-((R)-3-amino-1-(4-((6-amino-9H-purin-9-yl)methyl)-6-(4-fluoro-2-methoxyphenyl)pyridin-3-yl)piperidin-3-yl)-2,2-difluoroethan-1-ol] |  | 1040 nM |  | 10 to 1000 nM | 12800 nM
14 | CC[C@@H](C)C(=O)[C@@]1(N)CCCN(c2cnc(-c3ccc(F)c(F)c3)cc2Cn2cnc3c(N)ncnc32)C1 [Example 102, (R)-1-((R)-3-amino-1-(4-((6-amino-9H-purin-9-yl)methyl)-6-(3,4-difluorophenyl)pyridin-3-yl)piperidin-3-yl)-2-methylbutan-1-one] | 10 to 1000 nM | 60 nM | 252 nM |  | 
15 | Nc1ncnc2c1ncn2Cc1cc(-c2ccc(F)c(F)c2)ncc1N1CCCC(N)(C(=O)N2CCCCC2)C1 (stereo not drawn) [Example 86, (3-amino-1-(4-((6-amino-9H-purin-9-yl)methyl)-6-(3,4-difluorophenyl)pyridin-3-yl)piperidin-3-yl)(piperidin-1-yl)methanone] | 10 to 1000 nM | 8690 nM | 33300 nM |  | 
16 | C[C@H](F)c1cccc([C@@]2(N)CCCN(c3cnc(-c4ccc(F)cc4)cc3Cn3cnc4c(N)ncnc43)C2)n1 [Example 183, 9-((5-((R)-3-amino-3-(6-((S)-1-fluoroethyl)pyridin-2-yl)piperidin-1-yl)-2-(4-fluorophenyl)pyridin-4-yl)methyl)-9H-purin-6-amine] |  | 159 nM |  | 10 to 1000 nM | 455 nM
17 | COc1c(F)cc(-c2cc(Cn3cnc4c(N)ncnc43)c(N3CCC[C@](N)(C(O)C(F)F)C3)cn2)cc1F (stereo in doubt) [Example 165, (S)-1-((R)-3-amino-1-(4-((6-amino-9H-purin-9-yl)methyl)-6-(3,5-difluoro-4-methoxyphenyl)pyridin-3-yl)piperidin-3-yl)-2,2-difluoroethan-1-ol] | 1 to 10 nM | 218 nM | 1080 nM |  | 
18 | COc1c(F)cc(-c2cc(Cn3cnc4c(N)ncnc43)c(N3CCC[C@](N)(c4cccc(Cl)n4)C3)cn2)cc1F [Example 233, (R)-9-((5-(3-amino-3-(6-chloropyridin-2-yl)piperidin-1-yl)-2-(3,5-difluoro-4-methoxyphenyl)pyridin-4-yl)methyl)-9H-purin-6-amine] |  | 341 nM |  | 1 to 10 nM | 1100 nM
19 | Nc1ncnc2c1ncn2Cc1cc(-c2ccc(F)c(Cl)c2)ncc1N1CCC[C@](N)([C@@H](O)C(F)F)C1 [Example 122, (R)-1-((R)-3-amino-1-(4-((6-amino-9H-purin-9-yl)methyl)-6-(3-chloro-4-fluorophenyl)pyridin-3-yl)piperidin-3-yl)-2,2-difluoroethan-1-ol] | 1 to 10 nM | 496 nM | 1830 nM |  | 
20 | Nc1ncnc2c1ncn2Cc1cc(-c2cc(F)c(F)cc2F)ncc1N1CCC[C@](N)([C@@H](F)CO)C1 [Example 286, (R)-2-((R)-3-amino-1-(4-((6-amino-9H-purin-9-yl)methyl)-6-(2,4,5-trifluorophenyl)pyridin-3-yl)piperidin-3-yl)-2-fluoroethan-1-ol] |  | 5.9 nM |  | 1 to 10 nM | 655 nM
21 | Nc1ncnc2c1ncn2Cc1cc(-c2ccc(F)c(F)c2)ncc1N1CCC[C@](N)([C@@H](F)CO)C1 [Example 285, (R)-2-((R)-3-amino-1-(4-((6-amino-9H-purin-9-yl)methyl)-6-(3,4-difluorophenyl)pyridin-3-yl)piperidin-3-yl)-2-fluoroethan-1-ol] |  | 43.7 nM |  | 1 to 10 nM | 885 nM
